Reference: ChEMBL document CHEMBL2311358, “Inhibitors of HIV-1 attachment. Part 7: indole-7-carboxamides as potent and orally bioavailable antiviral agents” (Bioorg Med Chem Lett, 2013)
Values after ≈ are worked out from the molar mass of the structure shown.

Test system: not listed separately
Test: Oral bioavailability in monkey at 2.5 mg/kg
Assay type: ADME, organism-based, Macaca mulatta
Conditions: rhesus monkey, in vivo

| Structure (SMILES) | bioavailability [%] |
| --- | --- |
| CNC(=O)c1ccc(F)c2c(C(=O)C(=O)N3CCN(C(=O)c4ccccc4)CC3)c[nH]c12 | 70 |

Test system: not listed separately
Test: AUC in monkey at 1 mg/kg, iv and 2.5 mg/kg, po
Assay type: ADME, organism-based, Macaca mulatta
Conditions: rhesus monkey, plasma

| Structure (SMILES) | AUC [ng·h/mL] |
| --- | --- |
| CNC(=O)c1ccc(F)c2c(C(=O)C(=O)N3CCN(C(=O)c4ccccc4)CC3)c[nH]c12 | 3430 |

Test system: not listed separately
Test: Permeability across human Caco2 cells at pH 6.5
Assay type: ADME, cell-based
Conditions: Caco-2, pH 6.5, read-out: permeability

| Structure (SMILES) | Papp [×10⁻⁶ cm/s] |
| --- | --- |
| O=C(C(=O)N1CCN(C(=O)c2ccccc2)CC1)c1c[nH]c2cccc(F)c12 | 10 |
| O=C(Nc1nnn[nH]1)c1ccc(F)c2c(C(=O)C(=O)N3CCN(C(=O)c4ccccc4)CC3)c[nH]c12 | < 1.5 |
| O=C(Nc1nccs1)c1ccc(F)c2c(C(=O)C(=O)N3CCN(C(=O)c4ccccc4)CC3)c[nH]c12 | > 30 |
| O=C(NS(=O)(=O)c1ccccc1)c1ccc(F)c2c(C(=O)C(=O)N3CCN(C(=O)c4ccccc4)CC3)c[nH]c12 | 1.5 |
| CNC(=O)c1ccc(OC)c2c(C(=O)C(=O)N3CCN(C(=O)c4ccccc4)CC3)c[nH]c12 | 3.9 |
| C[C@@H]1CN(C(=O)c2ccccc2)CCN1C(=O)C(=O)c1c[nH]c2c(C(N)=O)ccc(F)c12 | 5.1 |
| NC(=O)c1ccc(F)c2c(C(=O)C(=O)N3CCN(C(=O)c4ccccc4)CC3)c[nH]c12 | 2.4 |
| CNC(=O)c1ccc(F)c2c(C(=O)C(=O)N3CCN(C(=O)c4ccccc4)CC3)c[nH]c12 | 11.2 |

Test system: not listed separately
Test: Cmax in rat at 1 mg/kg, iv and 5 mg/kg, po
Assay type: ADME, organism-based
Conditions: in vivo

| Structure (SMILES) | Cmax [ng/mL] |
| --- | --- |
| CNC(=O)c1ccc(F)c2c(C(=O)C(=O)N3CCN(C(=O)c4ccccc4)CC3)c[nH]c12 | 843 |

Test system: not listed separately
Test: Clearance in rat at 1 mg/kg, iv
Assay type: ADME, organism-based
Set-up: dose 1 mg/kg, route intravenous
Conditions: in vivo

| Structure (SMILES) | clearance [mL/min/kg] |
| --- | --- |
| O=C(C(=O)N1CCN(C(=O)c2ccccc2)CC1)c1c[nH]c2cccc(F)c12 | 48 |
| CNC(=O)c1ccc(F)c2c(C(=O)C(=O)N3CCN(C(=O)c4ccccc4)CC3)c[nH]c12 | 12 |

Test system: not listed separately
Test: Half life in human liver microsomes
Assay type: ADME, Microsome
Conditions: not given

| Structure (SMILES) | half-life [h] |
| --- | --- |
| O=C(C(=O)N1CCN(C(=O)c2ccccc2)CC1)c1c[nH]c2cccc(F)c12 | > 1.67 |
| O=C(Nc1nnn[nH]1)c1ccc(F)c2c(C(=O)C(=O)N3CCN(C(=O)c4ccccc4)CC3)c[nH]c12 | > 1.67 |
| O=C(Nc1nccs1)c1ccc(F)c2c(C(=O)C(=O)N3CCN(C(=O)c4ccccc4)CC3)c[nH]c12 | 0.0683 |
| O=C(NS(=O)(=O)c1ccccc1)c1ccc(F)c2c(C(=O)C(=O)N3CCN(C(=O)c4ccccc4)CC3)c[nH]c12 | > 1.67 |
| CNC(=O)c1ccc(OC)c2c(C(=O)C(=O)N3CCN(C(=O)c4ccccc4)CC3)c[nH]c12 | 0.667 |
| C[C@@H]1CN(C(=O)c2ccccc2)CCN1C(=O)C(=O)c1c[nH]c2c(C(N)=O)ccc(F)c12 | 0.417 |
| NC(=O)c1ccc(F)c2c(C(=O)C(=O)N3CCN(C(=O)c4ccccc4)CC3)c[nH]c12 | > 1.67 |
| CNC(=O)c1ccc(F)c2c(C(=O)C(=O)N3CCN(C(=O)c4ccccc4)CC3)c[nH]c12 | 1.35 |

Test system: not listed separately
Test: Half life in monkey at 1 mg/kg, iv
Assay type: ADME, organism-based, Macaca mulatta
Set-up: dose 1 mg/kg, route intravenous
Conditions: rhesus monkey, in vivo

| Structure (SMILES) | half-life [h] |
| --- | --- |
| CNC(=O)c1ccc(F)c2c(C(=O)C(=O)N3CCN(C(=O)c4ccccc4)CC3)c[nH]c12 | 4.18 |

Test system: Human immunodeficiency virus 1
Test: Antiviral activity against HIV1 JRFL infected in human HeLa cells expressing CD4 and CCR5 assessed as inhibition of single-cycle viral replication by luciferase reporter gene assay
Assay type: functional, organism-based
Conditions: Human immunodeficiency virus 1, JRFL

| Structure (SMILES) | EC50 [nM] |
| --- | --- |
| O=C(C(=O)N1CCN(C(=O)c2ccccc2)CC1)c1c[nH]c2cccc(F)c12 | 1.24 |
| O=C(Nc1ccccn1)c1ccc(F)c2c(C(=O)C(=O)N3CCN(C(=O)c4ccccc4)CC3)c[nH]c12 | 0.65 |
| O=C(Nc1nnn[nH]1)c1ccc(F)c2c(C(=O)C(=O)N3CCN(C(=O)c4ccccc4)CC3)c[nH]c12 | 0.4 |
| O=C(Nc1nccs1)c1ccc(F)c2c(C(=O)C(=O)N3CCN(C(=O)c4ccccc4)CC3)c[nH]c12 | 0.057 |
| O=C(NS(=O)(=O)c1ccccc1)c1ccc(F)c2c(C(=O)C(=O)N3CCN(C(=O)c4ccccc4)CC3)c[nH]c12 | 0.29 |
| CNC(=O)c1ccc(OC)c2c(C(=O)C(=O)N3CCN(C(=O)c4ccccc4)CC3)c[nH]c12 | 0.76 |
| C[C@@H]1CN(C(=O)c2ccccc2)CCN1C(=O)C(=O)c1c[nH]c2c(C(N)=O)ccc(F)c12 | 0.14 |
| NC(=O)c1ccc(F)c2c(C(=O)C(=O)N3CCN(C(=O)c4ccccc4)CC3)c[nH]c12 | 2.03 |
| CNC(=O)c1ccc(F)c2c(C(=O)C(=O)N3CCN(C(=O)c4ccccc4)CC3)c[nH]c12 | 0.52 |

Test system: not listed separately
Test: Half life in dog at 1 mg/kg, iv
Assay type: ADME, organism-based, Canis lupus familiaris
Set-up: dose 1 mg/kg, route intravenous
Conditions: in vivo

| Structure (SMILES) | half-life [h] |
| --- | --- |
| CNC(=O)c1ccc(F)c2c(C(=O)C(=O)N3CCN(C(=O)c4ccccc4)CC3)c[nH]c12 | 2.32 |

Test system: not listed separately
Test: Oral bioavailability in dog at 2.5 mg/kg
Assay type: ADME, organism-based, Canis lupus familiaris
Conditions: in vivo

| Structure (SMILES) | bioavailability [%] |
| --- | --- |
| CNC(=O)c1ccc(F)c2c(C(=O)C(=O)N3CCN(C(=O)c4ccccc4)CC3)c[nH]c12 | 93 |

Test system: not listed separately
Test: Cytotoxicity against human HeLa cells expressing CD4 assessed as cell viability after 6 days by XTT assay
Assay type: cell-based
Conditions: not given

| Structure (SMILES) | CC50 at 144 h [nM] |
| --- | --- |
| O=C(C(=O)N1CCN(C(=O)c2ccccc2)CC1)c1c[nH]c2cccc(F)c12 | > 300000 |
| O=C(Nc1ccccn1)c1ccc(F)c2c(C(=O)C(=O)N3CCN(C(=O)c4ccccc4)CC3)c[nH]c12 | 69000 |
| O=C(Nc1nnn[nH]1)c1ccc(F)c2c(C(=O)C(=O)N3CCN(C(=O)c4ccccc4)CC3)c[nH]c12 | > 300000 |
| O=C(Nc1nccs1)c1ccc(F)c2c(C(=O)C(=O)N3CCN(C(=O)c4ccccc4)CC3)c[nH]c12 | 89000 |
| O=C(NS(=O)(=O)c1ccccc1)c1ccc(F)c2c(C(=O)C(=O)N3CCN(C(=O)c4ccccc4)CC3)c[nH]c12 | > 300000 |
| CNC(=O)c1ccc(OC)c2c(C(=O)C(=O)N3CCN(C(=O)c4ccccc4)CC3)c[nH]c12 | > 300000 |
| C[C@@H]1CN(C(=O)c2ccccc2)CCN1C(=O)C(=O)c1c[nH]c2c(C(N)=O)ccc(F)c12 | 141000 |
| NC(=O)c1ccc(F)c2c(C(=O)C(=O)N3CCN(C(=O)c4ccccc4)CC3)c[nH]c12 | > 300000 |
| CNC(=O)c1ccc(F)c2c(C(=O)C(=O)N3CCN(C(=O)c4ccccc4)CC3)c[nH]c12 | > 300000 |

Test system: Hepatocyte
Test: Cytotoxicity against human hepatocytes expressing CYP3A4, CYP2C9, CYP2C19, CYP2D6
Assay type: ADME, cell-based
Conditions: not given

| Structure (SMILES) | IC50 [nM] |
| --- | --- |
| CNC(=O)c1ccc(F)c2c(C(=O)C(=O)N3CCN(C(=O)c4ccccc4)CC3)c[nH]c12 | > 57000 |

Test system: not listed separately
Test: Cmax in dog at 1 mg/kg, iv and 2.5 mg/kg, po
Assay type: ADME, organism-based, Canis lupus familiaris
Conditions: in vivo

| Structure (SMILES) | Cmax [ng/mL] |
| --- | --- |
| CNC(=O)c1ccc(F)c2c(C(=O)C(=O)N3CCN(C(=O)c4ccccc4)CC3)c[nH]c12 | 1560 |

Test system: not listed separately
Test: Cmax in monkey at 1 mg/kg, iv and 2.5 mg/kg, po
Assay type: ADME, organism-based, Macaca mulatta
Conditions: rhesus monkey, in vivo

| Structure (SMILES) | Cmax [ng/mL] |
| --- | --- |
| CNC(=O)c1ccc(F)c2c(C(=O)C(=O)N3CCN(C(=O)c4ccccc4)CC3)c[nH]c12 | 1330 |

Test system: not listed separately
Test: AUC in dog at 1 mg/kg, iv and 2.5 mg/kg, po
Assay type: ADME, organism-based, Canis lupus familiaris
Conditions: plasma

| Structure (SMILES) | AUC [ng·h/mL] |
| --- | --- |
| CNC(=O)c1ccc(F)c2c(C(=O)C(=O)N3CCN(C(=O)c4ccccc4)CC3)c[nH]c12 | 7030 |

Test system: not listed separately
Test: AUC in rat at 1 mg/kg, iv and 5 mg/kg, po
Assay type: ADME, organism-based
Conditions: plasma

| Structure (SMILES) | AUC [ng·h/mL] |
| --- | --- |
| CNC(=O)c1ccc(F)c2c(C(=O)C(=O)N3CCN(C(=O)c4ccccc4)CC3)c[nH]c12 | 4620 |

Test system: not listed separately
Test: Inhibition of CYP450 (unknown origin)
Assay type: ADME, Homo sapiens
Conditions: not given

| Structure (SMILES) | IC50 [nM] |
| --- | --- |
| CNC(=O)c1ccc(F)c2c(C(=O)C(=O)N3CCN(C(=O)c4ccccc4)CC3)c[nH]c12 | > 90000 |

Test system: not listed separately
Test: Solubility of the compound in amorphous form in PEG 400 at pH 6.5
Assay type: physicochemical
Conditions: PEG 400, pH 6.5

| Structure (SMILES) | solubility [µg/mL] |
| --- | --- |
| CNC(=O)c1ccc(F)c2c(C(=O)C(=O)N3CCN(C(=O)c4ccccc4)CC3)c[nH]c12 | 18000 (≈ 41200 µM) |

Test system: not listed separately
Test: Aqueous solubility of the compound in crystalline form at pH 6.5
Assay type: physicochemical
Conditions: aqueous, read-out: solubility

| Structure (SMILES) | solubility [µg/mL] |
| --- | --- |
| CNC(=O)c1ccc(F)c2c(C(=O)C(=O)N3CCN(C(=O)c4ccccc4)CC3)c[nH]c12 | 33 (≈ 75.6 µM) |

Same assay, conditions: buffer

| Structure (SMILES) | solubility [µg/mL] |
| --- | --- |
| O=C(C(=O)N1CCN(C(=O)c2ccccc2)CC1)c1c[nH]c2cccc(F)c12 | 0.005 (≈ 0.0132 µM) |

Test system: not listed separately
Test: Oral bioavailability in rat at 5 mg/kg
Assay type: ADME, organism-based
Conditions: in vivo

| Structure (SMILES) | bioavailability [%] |
| --- | --- |
| O=C(Nc1nnn[nH]1)c1ccc(F)c2c(C(=O)C(=O)N3CCN(C(=O)c4ccccc4)CC3)c[nH]c12 | < 1 |
| O=C(NS(=O)(=O)c1ccccc1)c1ccc(F)c2c(C(=O)C(=O)N3CCN(C(=O)c4ccccc4)CC3)c[nH]c12 | < 2 |
| NC(=O)c1ccc(F)c2c(C(=O)C(=O)N3CCN(C(=O)c4ccccc4)CC3)c[nH]c12 | 21 |
| CNC(=O)c1ccc(F)c2c(C(=O)C(=O)N3CCN(C(=O)c4ccccc4)CC3)c[nH]c12 | 65 |

Test system: not listed separately
Test: Plasma protein binding in human
Assay type: ADME, cell-free
Conditions: read-out: PPB (converted)

| Structure (SMILES) | fraction unbound |
| --- | --- |
| CNC(=O)c1ccc(F)c2c(C(=O)C(=O)N3CCN(C(=O)c4ccccc4)CC3)c[nH]c12 | 0.011 |

Test system: not listed separately
Test: Half life in rat at 1 mg/kg, iv
Assay type: ADME, organism-based
Set-up: dose 1 mg/kg, route intravenous
Conditions: in vivo

| Structure (SMILES) | half-life [h] |
| --- | --- |
| CNC(=O)c1ccc(F)c2c(C(=O)C(=O)N3CCN(C(=O)c4ccccc4)CC3)c[nH]c12 | 2.18 |
